Experimental data reported in patent publication US11505815B2, “Compositions and methods related to non-templated enzymatic nucleic acid synthesis” (Nuclera Nucleics Ltd., priority 2017, dated 2022).

How the values were obtained:
[1] = Deamination time course in sodium nitrite / sodium acetate pH 5.5, analysed by LC-MS; format: physicochemical; conditions: sodium nitrite (700 mM), pH 5.5 (1 M), room temperature; for Extent of deamination (conversion to oxidative deamination product): LC chromatograms at 260 nm
[2] = tested on: engineered terminal deoxynucleotidyl transferase; assay: Enzymatic incorporation of nucleoside 5′-triphosphates with amine-masking moieties onto a DNA primer (denaturing PAGE); format: biochemical; conditions: 10 minutes at 37° C., buffer containing cobalt chloride, DNA primer with 5′-fluorophore
Method: FIG. 11: Enzymatic incorporation of nucleoside 5′-triphosphates with amine-masking moieties. An engineered terminal deoxynucleotidyl transferase was incubated for 10 minutes at 37° C. in an appropriate buffer containing cobalt chloride and a DNA primer with a 5′-fluorophore as well as the following nucleoside 5′-triphosphates: (A) Lane 1: No extension control; Lane 2: N6-benzyl-dATP; Lane 3: N6-benzyl-rATP; Lane 4: N6-methyl-dATP; Lane 5: N6-methyl-rATP; (B) Lane 1: No extension control; Lane 2: 3′-O-acetyl-N4-benzoyl-dCTP; (C) Lane 1: No extension control; Lane 3: N6-benzoyl-dATP; Lane 4: N4-benzoyl-dCTP. Reactions were analyzed by standard denaturing polyacrylamide gel electrophoresis (TBE buffer) and imaged with a fluorescent scanner.

SMILES | Extent of deamination (conversion to oxidative deamination product) [1] | Deacetylation during incubation with nitrite solution ([1]; 48 hours) | Acceptance as substrate by terminal transferase enzyme in a DNA synthesis process [2]
Nc1nc2nc[nH]c2c(=O)[nH]1 [guanine, reference compound] | occur at an appreciable rate |  | 
CC(C)=CCNc1ncnc2nc[nH]c12 [N6-dimethylallylamino purine] | notable absence of peaks corresponding to dA or dI |  | 
Nc1cc[nH]c(=O)n1 [cytosine, reference compound] | occur at an appreciable rate |  | 

Next, values leading:

Extent of deamination (conversion to oxidative deamination product) [1] | Deacetylation during incubation with nitrite solution ([1]; 48 hours) | Acceptance as substrate by terminal transferase enzyme in a DNA synthesis process [2] | SMILES
occur at an appreciable rate |  |  | Nc1ncnc2nc[nH]c12 [adenine, reference compound]
no deamination product is detected | minor deacetylation |  | CC(=O)Nc1ncnc2c1ncn2[C@@H]1O[C@H](CO)[C@@H](O)[C@H]1O [N6-acetyl A, N6-acetyl adenosine]
 |  | accepted as a substrate | O=C(Nc1ccn([C@H]2C[C@H](O)[C@@H](COP(=O)(O)OP(=O)(O)OP(=O)(O)O)O2)c(=O)n1)c1ccccc1 [N4-benzoyl 2′-deoxycytidine triphosphate]
